Where “and” joins values, the source holds several entries; their conditions need not be identical. Identical values can stand only once.
What was measured:
hSTING-WT = target: T1, hSTING-WT (Homo sapiens, UniProt Q86WV6, H232R); experiment: HTRF STING competition binding (cGAMP displacement) assay, hSTING-WT; conditions: for IC50: HTRF displacement assay, means from at least three repeated experiments; for binding to hSTING-WT in displacement assay, in words: concentrations up to 100 μM
T1 construct: purchased Cisbio
T1 sequence (Q86WV6 whole entry H232R): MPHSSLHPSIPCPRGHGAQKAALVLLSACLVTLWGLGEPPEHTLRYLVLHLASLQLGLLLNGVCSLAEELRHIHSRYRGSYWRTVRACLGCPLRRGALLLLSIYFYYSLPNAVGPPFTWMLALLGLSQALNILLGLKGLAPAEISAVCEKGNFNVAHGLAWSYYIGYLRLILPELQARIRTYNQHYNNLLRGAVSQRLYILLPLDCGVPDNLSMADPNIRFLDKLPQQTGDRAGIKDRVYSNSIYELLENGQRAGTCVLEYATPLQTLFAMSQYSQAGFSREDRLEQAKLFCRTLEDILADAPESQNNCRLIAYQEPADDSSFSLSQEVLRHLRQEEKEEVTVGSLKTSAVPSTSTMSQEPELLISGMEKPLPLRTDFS
Experimental: (§1) Mouse STING binding kits, human STING WT binding kits, human AQ STING binding kits, human H232 STING binding kits were purchased from Cisbio. […] QUANTI-Blue solution, QUANTI-Luc, 2′,3′-cGAMP were purchased from Invivogen. […] CellTiter-Glo luminescent cell viability assay kit was obtained from Promega.
(§2) According to the instructions of STING binding kits, the following solutions were successively added to each well in the 384-well plate: 5 μL of the detection compounds or 2′,3′-cGAMP (positive control) with different concentrations or diluent (negative control); 5 μL of human STING 6His-tagged protein (negative control well was added to detection buffer); 10 μL of STING ligand d2 and Anti 6His-Tb3^+ premixed working solution.

hSTING-AQ = target: T2, hSTING-AQ (Homo sapiens, UniProt Q86WV6, G230A/R293Q); experiment: HTRF STING competition binding (cGAMP displacement) assay, hSTING-AQ; conditions: for IC50: HTRF displacement assay, means from at least three repeated experiments; for binding to hSTING-AQ in displacement assay, in words: concentrations up to 100 μM
T2 construct: purchased Cisbio
T2 sequence (Q86WV6 whole entry G230A/R293Q): as the sequence (Q86WV6 whole entry H232R) above, with G230A, R232H, R293Q counted along it
Experimental: as §1, §2

hSTING-H232 = target: T3, hSTING-H232 (Homo sapiens, UniProt Q86WV6); experiment: HTRF STING competition binding (cGAMP displacement) assay, hSTING-H232; conditions: for IC50: HTRF displacement assay, means from at least three repeated experiments; for binding to hSTING-H232 in displacement assay, in words: concentrations up to 100 μM
T3 construct: purchased Cisbio
T3 sequence (Q86WV6 135-379 limits assumed): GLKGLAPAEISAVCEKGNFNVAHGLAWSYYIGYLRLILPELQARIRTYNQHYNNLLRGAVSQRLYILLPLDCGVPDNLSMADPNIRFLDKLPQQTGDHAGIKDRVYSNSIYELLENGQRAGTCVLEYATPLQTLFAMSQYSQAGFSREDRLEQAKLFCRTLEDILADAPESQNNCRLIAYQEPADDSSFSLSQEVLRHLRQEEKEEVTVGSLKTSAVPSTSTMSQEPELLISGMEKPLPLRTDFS
Experimental: as §1, §2

hSTING [1] = tested on: hSTING; set-up: method as in PMID 31927317; conditions: STING reporter cells, agonist activity; cited from earlier work
hSTING [2] = tested on: hSTING; set-up: method as in PMID 31927317; conditions: STING competition binding kits; cited from earlier work
mSTING [3] = target: T4, mSTING (Mus musculus, UniProt Q3TBT3); experiment: HTRF STING competition binding (cGAMP displacement) assay, mSTING; set-up: purchased Cisbio; conditions: for IC50: HTRF displacement assay, means from at least three repeated experiments; for binding to mSTING in displacement assay, in words: concentrations up to 100 μM
T4 sequence (Q3TBT3 1-378): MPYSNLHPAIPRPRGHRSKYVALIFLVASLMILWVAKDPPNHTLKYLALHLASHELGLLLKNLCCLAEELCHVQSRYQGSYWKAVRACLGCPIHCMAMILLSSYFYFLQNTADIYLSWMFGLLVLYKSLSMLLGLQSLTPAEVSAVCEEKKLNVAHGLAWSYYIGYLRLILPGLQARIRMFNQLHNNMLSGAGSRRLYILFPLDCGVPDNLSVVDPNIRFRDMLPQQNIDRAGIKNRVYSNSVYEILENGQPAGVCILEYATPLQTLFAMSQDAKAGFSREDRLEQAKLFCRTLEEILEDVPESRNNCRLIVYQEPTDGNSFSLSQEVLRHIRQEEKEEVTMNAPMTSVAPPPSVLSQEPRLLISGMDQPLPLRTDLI
Experimental: as §1, §2

mSTING [4] = target: T4, mSTING; set-up: purchased Cisbio; method as in PMID 31927317; conditions: STING reporter cells, agonist activity; cited from earlier work
mSTING [5] = target: T4, mSTING; experiment: Cellular assay for STING inhibitory activity, 293T mSTING cells stimulated with 2′,3′-cGAMP (SEAP); conditions: for inhibitory potency in murine STING reporter cells, initial screen: compound at 100 μM
hSTING-R232 = hSTING-R232 (Homo sapiens, UniProt Q86WV6, H232R); experiment: Cellular assay for STING inhibitory activity, 293T hSTING-R232 cells stimulated with 2′,3′-cGAMP (SEAP); conditions: for inhibitory potency in human STING reporter cells, initial screen: compound at 100 μM
Chain of hSTING-R232 (Q86WV6 whole entry H232R): as the sequence (Q86WV6 whole entry H232R) above

293T cells = experiment: CellTiter-Glo luminescent cell viability assay, 293T cells; conditions: 48 h
THP-1 cells = experiment: CellTiter-Glo luminescent cell viability assay, THP-1 cells; conditions: 48 h
[6] = tested on: STING-triggered NF-κB pathway; experiment: Inhibition of STING dual pathways, THP1-KI-hSTING-R232 cells, NF-κB (SEAP); conditions: THP1-hSTING-R232 cells stimulated with 2′,3′-cGAMP, 24 h; 11 20 µM, 27 33 µM, H151 2 µM
Text: (§3) After the THP-1 reporter cell line stimulation with 2′,3′-cGAMP, we added STING inhibitors with appropriate concentrations for inhibiting the inductions of I IFN and proinflammatory cytokine. […] In addition, to exclude the effect of cytotoxicity of the compounds on the inhibitory activity, we used the CellTiter-Glo kit to assay cellular activity.

[7] = tested on: STING-triggered IRF pathway; experiment: Inhibition of STING dual pathways, THP1-KI-hSTING-R232 cells, IRF (Lucia luciferase); conditions: THP1-hSTING-R232 cells stimulated with 2′,3′-cGAMP, 24 h; 11 20 µM, 27 33 µM, H151 2 µM
Text: as §3

Row | Structure (SMILES) | IC50 (hSTING-WT) | binding to hSTING-WT in displacement assay, in words (hSTING-WT) | IC50 (hSTING-AQ) | binding to hSTING-AQ in displacement assay, in words (hSTING-AQ) | IC50 (hSTING-H232) | binding to hSTING-H232 in displacement assay, in words (hSTING-H232) | IC50 (mSTING [3]) | also measured
1 | COc1cc2c(=O)c3cccc4c3n(c2c(C)c1C)C(=O)C4 [Compound 3] | 18.3 µM | IC50 values at the micromolar level | 58.2 µM | IC50 values at the micromolar level | 36 µM | IC50 values at the micromolar level | 33.3 µM | EC50 (hSTING [1]): 154 ± 9.6 µM; IC50 (hSTING [2]): 10.3 µM; EC50 (mSTING [4]): 66.5 ± 10.5 µM; inhibitory potency in murine STING reporter cells, initial screen (mSTING [5]): not being as effective; inhibitory potency in human STING reporter cells, initial screen (hSTING-R232): not being as effective
2 | COc1cc2c(=O)c3cccc(CC(=O)O)c3[nH]c2c(C)c1C [Compound 4] | 21.1 µM | IC50 values at the micromolar level | 47.6 µM | IC50 values at the micromolar level | 43.8 µM | IC50 values at the micromolar level | 28.2 µM | EC50 (hSTING [1]): 135 ± 12.1 µM; IC50 (hSTING [2]): 13.1 µM; EC50 (mSTING [4]): 72.3 ± 11.1 µM; inhibitory potency in murine STING reporter cells, initial screen (mSTING [5]): not being as effective; inhibitory potency in human STING reporter cells, initial screen (hSTING-R232): not being as effective
3 | COc1cc2c(=O)c3ccccc3[nH]c2c(C)c1C [Compound 9, 2-methoxy-3,4-dimethylacridin-9(10H)-one] | > 100 µM | cannot bind to STING | > 100 µM | cannot bind to STING | > 100 µM | cannot bind to STING | > 100 µM | binding to mSTING in displacement assay, in words (mSTING [3]): cannot bind to STING
4 | CCOC(=O)Cn1c2ccccc2c(=O)c2cc(OC)c(C)c(C)c21 [Compound 10, Ethyl 2-(2-methoxy-3,4-dimethyl-9-oxoacridin-10 (9H)-yl)acetate] | > 100 µM | cannot bind to STING | > 100 µM | cannot bind to STING | > 100 µM | cannot bind to STING | > 100 µM | binding to mSTING in displacement assay, in words (mSTING [3]): cannot bind to STING
5 | COc1cc2c(=O)c3ccccc3n(CC(=O)O)c2c(C)c1C [Compound 11, 2-(2-methoxy-3,4-dimethyl-9-oxoacridin-10(9H)-yl)acetic acid] | < 20 µM and 5.81 µM | – | < 20 µM and 14.3 µM | – | < 20 µM and 12.1 µM | – | < 20 µM and 19 µM | cytotoxicity, cell viability 293T cells (293T cells; 5 to 100 μM): no evidence of cytotoxicity; cytotoxicity, cell viability THP-1 cells (THP-1 cells; 5 to 100 μM): no evidence of cytotoxicity; inhibition of STING-triggered NF-κB pathway activation [6]: significantly inhibited; inhibition of STING-triggered IRF pathway activation [7]: significantly inhibited; IC50 (mSTING [5]): 15.5 µM; inhibitory potency in murine STING reporter cells, initial screen (mSTING [5]): excellent inhibition; IC50 (hSTING-R232): 19.9 µM; inhibitory potency in human STING reporter cells, initial screen (hSTING-R232): excellent inhibition
6 | COc1cc2c(=O)c3c(Cl)ccc4c3n(c2c(C)c1C)C(=O)C4 [Compound 25, 5-chloro-8-methoxy-9,10-dimethyl-6H-pyrrolo [3,2,1-de]acridine-1,6(2H)-dione] | 78.1 µM | – | 48 µM | – | 37.7 µM | – | 32.4 µM | –
7 | COc1cc2c(=O)c3cc(Cl)cc4c3n(c2c(C)c1C)C(=O)C4 [Compound 26, 4-chloro-8-methoxy-9,10-dimethyl-6H-pyrrolo[3,2,1-de]acridine-1,6(2H)-dione] | > 100 µM | – | 65.1 µM | – | 79.1 µM | – | 51.5 µM | –
8 | COc1cc2c(=O)c3c(F)ccc4c3n(c2c(C)c1C)C(=O)C4 [Compound 27, 5-fluoro-8-methoxy-9,10-dimethyl-6H-pyrrolo[3,2,1-de]acridine-1,6(2H)-dione] | 7.67 µM | single-digit micromolar activity | 5.82 µM | single-digit micromolar activity | 6.57 µM | single-digit micromolar activity | 3.88 µM | binding to mSTING in displacement assay, in words (mSTING [3]): single-digit micromolar activity; inhibition of STING-triggered NF-κB pathway activation [6]: significantly inhibited; inhibition of STING-triggered IRF pathway activation [7]: significantly inhibited; IC50 (mSTING [5]): 30.8 µM; inhibitory potency in murine STING reporter cells, initial screen (mSTING [5]): excellent inhibition; IC50 (hSTING-R232): 38.8 µM; inhibitory potency in human STING reporter cells, initial screen (hSTING-R232): excellent inhibition
9 | COc1cc2c(=O)c3cc(F)cc4c3n(c2c(C)c1C)C(=O)C4 [Compound 28, 4-fluoro-8-methoxy-9,10-dimethyl-6H-pyrrolo[3,2,1-de]acridine-1,6(2H)-dione] | 88.1 µM | – | 55.2 µM | – | 62.4 µM | – | 61 µM | –
10 | COc1cc2c3c(c1)c(=O)c1cc(OC)c(C)c(C)c1n3C(=O)C2 [Compound 29, 4,8-dimethoxy-9,10-dimethyl-6H-pyrrolo[3,2,1-de]acridine-1,6(2H)-dione] | > 100 µM | – | 70.5 µM | – | 82.8 µM | – | > 100 µM | –
11 | COc1cc2c(=O)c3cccc(C(=O)O)c3[nH]c2c(C)c1C [Compound 33, 7-methoxy-5,6-dimethyl-9-oxo-9,10-dihydroacridine-4-carboxylic acid] | > 100 µM | inactive | > 100 µM | inactive | > 100 µM | inactive | > 100 µM | binding to mSTING in displacement assay, in words (mSTING [3]): inactive
12 | COc1cc(C(=O)O)c2[nH]c3c(C)c(C)c(OC)cc3c(=O)c2c1 [Compound 34, 2,7-dimethoxy-5,6-dimethyl-9-oxo-9,10-dihydroacridine-4-carboxylic acid] | > 100 µM | inactive | > 100 µM | inactive | > 100 µM | inactive | > 100 µM | binding to mSTING in displacement assay, in words (mSTING [3]): inactive
13 | COc1cc2c(=O)c3c(F)ccc(CC(=O)O)c3[nH]c2c(C)c1C [Compound 35] | > 100 µM | – | > 100 µM | – | > 100 µM | – | > 100 µM | –
14 | COc1cc2c(=O)c3c(Cl)ccc(CC(=O)O)c3[nH]c2c(C)c1C [Compound 36] | > 100 µM | – | > 100 µM | – | > 100 µM | – | > 100 µM | –
15 | COc1cc2c(=O)c3cc(F)cc(CC(=O)O)c3[nH]c2c(C)c1C [Compound 37] | > 100 µM | – | > 100 µM | – | > 100 µM | – | > 100 µM | –
16 | COc1cc2c(=O)c3cc(Cl)cc(CC(=O)O)c3[nH]c2c(C)c1C [Compound 38] | > 100 µM | – | > 100 µM | – | > 100 µM | – | > 100 µM | –
17 | CCc1ccc(NC(=O)Nc2c[nH]c3ccccc23)cc1 [Compound H151, reference compound] | – | – | – | – | – | – | – | cytotoxicity, cell viability 293T cells (293T cells; at 10 μM): significant cytotoxicity; cytotoxicity, cell viability THP-1 cells (THP-1 cells; at 10 μM): significant cytotoxicity

Source: PMC10095708, “Discovery of Novel STING Inhibitors Based on the Structure of the Mouse STING Agonist DMXAA” (Molecules, 2023)
